Patent US20160083357A1, “NOVEL TETRAZOLONE DERIVATIVES” (Hoffmann-La Roche Inc., priority 2013, published 2016)
Where two headings read alike, the source gives them in different places.

Key:
human CB1 receptors = target: T1, human CB1 receptors (Homo sapiens, UniProt P21554); test: cAMP assay, human CB1; type: cell-based
T1 construct: expressed in transfected cells; host or cells: CHO cells
Outline: (§1)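 CHO cells expressing human CB1 or CB2, preincubated in Krebs Ringer bicarbonate with 1 mM IBMX, then compound for 30 min at 30° C. cAMP quantified by time-resolved FRET (cAMP-Nano-TRF) against a cAMP standard curve; EC50 values derived.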

human CB2 receptors = target: T2, human CB2 receptors (Homo sapiens, UniProt P34972); test: cAMP assay, human CB2; type: cell-based
T2 construct: expressed in transfected cells; host or cells: CHO cells
T2 sequence (P34972 whole entry): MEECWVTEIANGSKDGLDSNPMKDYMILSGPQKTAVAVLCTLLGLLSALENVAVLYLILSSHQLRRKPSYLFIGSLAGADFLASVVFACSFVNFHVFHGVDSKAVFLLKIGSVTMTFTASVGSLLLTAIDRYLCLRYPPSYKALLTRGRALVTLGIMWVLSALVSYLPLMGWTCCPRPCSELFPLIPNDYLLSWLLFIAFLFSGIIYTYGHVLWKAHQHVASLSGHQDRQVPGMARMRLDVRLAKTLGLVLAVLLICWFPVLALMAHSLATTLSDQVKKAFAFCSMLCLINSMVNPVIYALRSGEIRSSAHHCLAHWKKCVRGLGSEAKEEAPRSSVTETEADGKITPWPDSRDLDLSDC
Outline: as §1

[1] = functional cAMP assay, CHO cells expressing human CB1, read-out: Ec50: CB1 - hu cAMP
[2] = functional cAMP assay, CHO cells expressing human CB2, read-out: Ec50: CB2 - hu cAMP

T1 sequence (P21554 whole entry): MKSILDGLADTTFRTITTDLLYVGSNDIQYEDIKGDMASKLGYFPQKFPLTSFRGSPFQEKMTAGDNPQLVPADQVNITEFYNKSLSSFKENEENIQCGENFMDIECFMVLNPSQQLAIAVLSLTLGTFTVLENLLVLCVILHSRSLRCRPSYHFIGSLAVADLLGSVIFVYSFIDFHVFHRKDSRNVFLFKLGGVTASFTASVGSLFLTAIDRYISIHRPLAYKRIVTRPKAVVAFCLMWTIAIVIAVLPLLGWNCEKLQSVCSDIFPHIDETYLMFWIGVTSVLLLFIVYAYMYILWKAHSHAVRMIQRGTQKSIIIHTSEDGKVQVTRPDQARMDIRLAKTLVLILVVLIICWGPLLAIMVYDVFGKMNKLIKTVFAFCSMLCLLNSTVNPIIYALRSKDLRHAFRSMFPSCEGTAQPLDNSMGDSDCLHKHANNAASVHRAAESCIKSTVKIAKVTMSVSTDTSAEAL

EC50 (human CB1 receptors; [1])	EC50 (human CB2 receptors; [2])	Compound	EC50 (human CB1 receptors)	EC50 (human CB2 receptors)
> 10000 nM	8.4 nM	Cc1cccc(-n2nnn(C(=O)N3CCOCC3)c2=O)c1 [Example 127, 1-(3-methylphenyl)-4-(morpholine-4-carbonyl)tetrazol-5-one]	–	–
> 10000 nM	3.2 nM	O=C(N1CCOCC1)n1nnn(-c2cccc(Cl)c2)c1=O [Example 101, 1-(3-Chloro-phenyl)-4-(morpholine-4-carbonyl)-1,4-dihydro-tetrazol-5-one]	–	–
> 10000 nM	1.3 nM	COCCN(C)C(=O)n1nnn(-c2cccc(F)c2)c1=O [Example 54, 4-(3-Fluoro-phenyl)-5-oxo-4,5-dihydro-tetrazole-1-carboxylic acid (2-methoxy-ethyl)-methyl-amide]	–	–
> 10000 nM	6.7 nM	COc1ccc(-n2nnn(C(=O)N3CCOCC3)c2=O)cc1 [Example 130, 1-(4-methoxyphenyl)-4-(morpholine-4-carbonyl)tetrazol-5-one]	–	–
–	–	CCN(Cc1ccccc1)C(=O)n1nnn(-c2cccc(F)c2)c1=O [Example 12, 4-(3-Fluoro-phenyl)-5-oxo-4,5-dihydro-tetrazole-1-carboxylic acid benzyl-ethyl-amide]	> 10000 nM	0.6 nM
> 10000 nM	114 nM	CC(C(=O)N1CCCC1)N1CCN(C(=O)n2nnn(-c3ccc(Cl)cc3)c2=O)CC1 (stereo not drawn) [Example 118, 1-(4-Chloro-phenyl)-4-[4-(1-methyl-2-oxo-2-pyrrolidin-1-yl-ethyl)-piperazine-1-carbonyl]-1,4-dihydro-tetrazol-5-one]	–	–
> 10000 nM	797 nM	O=C(N1CCC(F)(F)C1)n1nnn(-c2cccc(F)c2)c1=O [Example 45, 1-(3,3-Difluoro-pyrrolidine-1-carbonyl)-4-(3-fluoro-phenyl)-1,4-dihydro-tetrazol-5-one]	–	–
> 10000 nM	3 nM	O=C(N1CCOCC1)n1nnn(-c2cccc(F)c2)c1=O [Example 4, 1-(3-Fluoro-phenyl)-4-(morpholine-4-carbonyl)-1,4-dihydro-tetrazol-5-one]	–	–
> 10000 nM	2.7 nM	CC1(C)CCN(C(=O)n2nnn(-c3cccc(F)c3)c2=O)C1 [Example 47, 1-(3,3-Dimethyl-pyrrolidine-1-carbonyl)-4-(3-fluoro-phenyl)-1,4-dihydro-tetrazol-5-one]	–	–
> 10000 nM	5 nM	CC1(C)CCN(C(=O)n2nnn(-c3cccc(Cl)c3)c2=O)C1 [Example 138, 1-(3-chlorophenyl)-4-(3,3-dimethylpyrrolidine-1-carbonyl)tetrazol-5-one]	–	–
> 10000 nM	386 nM	O=C(N1CCOCC1)n1nnn(-c2ccccc2C(F)(F)F)c1=O [Example 119, 1-(morpholine-4-carbonyl)-4-[2-(trifluoromethyl)phenyl]tetrazol-5-one]	–	–
> 10000 nM	1920 nM	NC(=O)[C@@H]1CCCN1C(=O)n1nnn(-c2cccc(F)c2)c1=O [Example 22, (S)-1-[4-(3-Fluoro-phenyl)-5-oxo-4,5-dihydro-tetrazole-1-carbonyl]-pyrrolidine-2-carboxylic acid amide]	–	–
> 10000 nM	10.6 nM	CCNC(=O)CN1CCN(C(=O)n2nnn(-c3ccc(Cl)cc3)c2=O)CC1 [Example 106, 2-{4-[4-(4-Chloro-phenyl)-5-oxo-4,5-dihydro-tetrazole-1-carbonyl]-piperazin-1-yl}-N-ethyl-acetamide]	–	–
–	–	COCCN(C(=O)n1nnn(-c2ccc(Cl)cc2)c1=O)C(C)C [Example 85, 4-(4-Chloro-phenyl)-5-oxo-4,5-dihydro-tetrazole-1-carboxylic acid isopropyl-(2-methoxy-ethyl)-amide]	> 10000 nM	7.9 nM
> 10000 nM	1 nM	COCCCN(C)C(=O)n1nnn(-c2cccc(Cl)c2)c1=O [Example 86, 4-(3-Chloro-phenyl)-5-oxo-4,5-dihydro-tetrazole-1-carboxylic acid (3-methoxy-propyl)-methyl-amide]	–	–
> 10000 nM	18.2 nM	O=C(CN1CCN(C(=O)n2nnn(-c3cccc(OC(F)(F)F)c3)c2=O)CC1)N1CCCC1 [Example 96, 1-[4-(2-Oxo-2-pyrrolidin-1-yl-ethyl)-piperazine-1-carbonyl]-4-(3-trifluoromethoxy-phenyl)-1,4-dihydro-tetrazol-5-one]	–	–
> 10000 nM	1.8 nM	CC1(C)CCCN(C(=O)n2nnn(-c3cccc(F)c3)c2=O)C1 [Example 63, 1-(3,3-Dimethyl-piperidine-1-carbonyl)-4-(3-fluoro-phenyl)-1,4-dihydro-tetrazol-5-one]	–	–
> 10000 nM	6.9 nM	Cc1cc(C2CCCN2C(=O)n2nnn(-c3cccc(F)c3)c2=O)on1 (stereo not drawn) [Example 20, 1-(3-Fluoro-phenyl)-4-[2-(3-methyl-isoxazol-5-yl)-pyrrolidine-1-carbonyl]-1,4-dihydro-tetrazol-5-one]	–	–
> 10000 nM	90.2 nM	CC1(C)CCCN1C(=O)n1nnn(-c2cccc(F)c2)c1=O [Example 46, 1-(2,2-Dimethyl-pyrrolidine-1-carbonyl)-4-(3-fluoro-phenyl)-1,4-dihydro-tetrazol-5-one]	–	–
> 10000 nM	1.4 nM	CCOCCN(C)C(=O)n1nnn(-c2ccc(Cl)cc2)c1=O [Example 113, 4-(4-Chloro-phenyl)-5-oxo-4,5-dihydro-tetrazole-1-carboxylic acid (2-ethoxy-ethyl)-methyl-amide]	–	–
–	–	COCCCN(C)C(=O)n1nnn(-c2cccc(OC(F)(F)F)c2)c1=O [Example 87, 5-Oxo-4-(3-trifluoromethoxy-phenyl)-4,5-dihydro-tetrazole-1-carboxylic acid (3-methoxy-propyl)-methyl-amide]	> 10000 nM	3.6 nM
> 10000 nM	1.2 nM	CN(CCCc1ccccc1)C(=O)n1nnn(-c2cccc(F)c2)c1=O [Example 8, 4-(3-Fluoro-phenyl)-5-oxo-4,5-dihydro-tetrazole-1-carboxylic acid methyl-(3-phenyl-propyl)-amide]	–	–
> 10000 nM	9.1 nM	COc1cccc(-n2nnn(C(=O)N3CCOCC3)c2=O)c1 [Example 129, 1-(3-methoxyphenyl)-4-(morpholine-4-carbonyl)tetrazol-5-one]	–	–
> 10000 nM	4.2 nM	CCCCNC(=O)CN1CCN(C(=O)n2nnn(-c3ccc(Cl)cc3)c2=O)CC1 [Example 109, N-Butyl-2-{4-[4-(4-chloro-phenyl)-5-oxo-4,5-dihydro-tetrazole-1-carbonyl]-piperazin-1-yl}-acetamide]	–	–
> 10000 nM	15 nM	CC(=O)N[C@@H]1CCN(C(=O)n2nnn(-c3cccc(Cl)c3)c2=O)C1 [Example 65, N—{(R)-1-[4-(3-Chloro-phenyl)-5-oxo-4,5-dihydro-tetrazole-1-carbonyl]-pyrrolidin-3-yl}-acetamide]	–	–
> 10000 nM	26 nM	Cc1noc(C2CCCN2C(=O)n2nnn(-c3cccc(F)c3)c2=O)n1 (stereo not drawn) [Example 25, 1-(3-Fluoro-phenyl)-4-[2-(3-methyl-[1,2,4]oxadiazol-5-yl)-pyrrolidine-1-carbonyl]-1,4-dihydro-tetrazol-5-one]	–	–
> 10000 nM	19 nM	COCC1CCCCN1C(=O)n1nnn(-c2cccc(F)c2)c1=O (stereo not drawn) [Example 34, 1-(3-Fluoro-phenyl)-4-(2-methoxymethyl-piperidine-1-carbonyl)-1,4-dihydro-tetrazol-5-one]	–	–
